Values joined by “and” are separate entries in the source; they are usually repeats but may differ in a detail not shown here. Equal entries are not always repeated. Where a SMILES comes first, the peptide text is derived from it. [ ]: non-standard residue; d: D form. Hyp = O=C(O)[C@@H]1C[C@@H](O)CN1
Test system: CCL3/MIP-1 alpha
Assay: Example 8 main study Luminex, LPS hPBMCs: CCL3/MIP-1 alpha
Format: cell-based, human
Protocol: Human PBMCs were pretreated with YY-101, YDE-011, YDE-043 or reference compound; Xiidra® at various concentration (ranging from […] to 500 nM) for 2 h before stimulation. An equal volume of 0.5% DMSO was used as a vehicle control. Then, the cells were treated with LPS at 5 ug/ml, which was selected based on the pilot study. The supernatants from treated cells were harvested at 24 h and placed in a 96 well for Luminex cytokine & chemokine profiling using a Luminex 200 multiplex assay (Luminex; R&D system, USA).
The main study arm with triplicate wells per group in a 24-well plate: • 1. Blank • 2. PBMC: 0.5% DMSO • 3. PBMC+LPS (5 ug/ml) • 4. PBMC+YY-101 500 nM • 5. PBMC+YY-101 50 nM • 6. PBMC+YY-101 5 nM • 7. PBMC+YY-101 0.5 nM • 8. PBMC+LPS (5 ug/ml)+Xiidra® 500 nM • 9. PBMC+LPS (5 ug/ml)+Xiidra® 50 nM • 10. PBMC+LPS (5 ug/ml)+Xiidra® 5 nM • 11. PBMC+LPS (5 ug/ml)+Xiidra® 0.5 nM • 12. PBMC+LPS (5 ug/ml)+Xiidra® 0.05 nM • 13. PBMC+LPS (5 ug/ml)+Xiidra® 0.005 nM • 14. PBMC+LPS (5 ug/ml)+YY-101 500 nM • 15. PBMC+LPS (5 ug/ml)+YY-101 50 nM • 16. PBMC+LPS (5 ug/ml)+YY-101 5 nM • 17. PBMC+LPS (5 ug/ml)+YY-101 0.5 nM • 18. PBMC+LPS (5 ug/ml)+YY-101 0.05 nM • 19. PBMC+LPS (5 ug/ml)+YY-101 0.005 nM • 20. PBMC+LPS (5 ug/ml)+YDE-011 500 nM • 21. PBMC+LPS (5 ug/ml)+YDE-011 50 nM • 22. PBMC+LPS (5 ug/ml)+YDE-011 5 nM • 23. PBMC+LPS (5 ug/ml)+YDE-011 0.5 nM • 24. PBMC+LPS (5 ug/ml)+YDE-011 0.05 nM • 25. PBMC+LPS (5 ug/ml)+YDE-011 0.005 nM • 26. PBMC+LPS (5 ug/ml)+YDE-043 500 nM • 27. PBMC+LPS (5 ug/ml)+YDE-043 50 nM • 28. PBMC+LPS (5 ug/ml)+YDE-043 5 nM • 29. PBMC+LPS (5 ug/ml)+YDE-043 0.5 nM • 30. PBMC+LPS (5 ug/ml)+YDE-043 0.05 nM • 31. PBMC+LPS (5 ug/ml)+YDE-043 0.005 nM
Multiplex assay was used to measure 30 cytokines and chemokines. The 1:200 diluted cell supernatant and serial dilution of the standard were dispensed into a 96 well plate at 50 ul/well. Then, the pre-mixed cocktail of antibody-coated magnetic beads was dispensed at 50 ul/well and incubated at room temperature for 2 h in a horizontal orbital microplate shaker at 800±500 rpm. The beads were washed using a magnetic device to prevent loss. The biotin-antibody was dispensed in 50 ul of each well and incubated at room temperature for 1 h in a shaker at 800±500 rpm. After washing, streptavidin-PE was added at 50 ul/well and incubated at room temperature for 30 min in a shaker under the same conditions. Finally, after washing, wash buffer (100 ul/well) was added to the plate and incubated in a shaker for 2 min. The Luminex™ 200 setting were set according to the manufacturer's protocol. The data was calculated with a standard five-parameter logistic nonlinear regression analysis of the data (xPonent software 4.2, USA). Results were presented as concentration (ng/ml or pg/ml).

[1] = PBMC + LPS(5 ug/ml) + test article 0.005 nM, Mean
[2] = PBMC + LPS(5 ug/ml) + test article 0.005 nM, single replicates
[3] = PBMC + LPS(5 ug/ml) + test article 0.05 nM, Mean
[4] = PBMC + LPS(5 ug/ml) + test article 0.05 nM, single replicates
[5] = PBMC + LPS(5 ug/ml) + test article 0.5 nM, Mean
[6] = PBMC + LPS(5 ug/ml) + test article 0.5 nM, single replicates
[7] = PBMC + LPS(5 ug/ml) + test article 5 nM, Mean
[8] = PBMC + LPS(5 ug/ml) + test article 5 nM, single replicates
[9] = PBMC + LPS(5 ug/ml) + test article 50 nM, Mean
[10] = PBMC + LPS(5 ug/ml) + test article 50 nM, single replicates
[11] = PBMC + LPS(5 ug/ml) + test article 500 nM, Mean
[12] = PBMC + LPS(5 ug/ml) + test article 500 nM, single replicates
[13] = PBMC + test article 0.5 nM, no LPS, Mean
[14] = PBMC + test article 0.5 nM, no LPS, single replicates
[15] = PBMC + test article 5 nM, no LPS, Mean
[16] = PBMC + test article 5 nM, no LPS, single replicates

SMILES: CC(C)C[C@H](NC(=O)CNC(=O)[C@H](CC(=O)O)NC(=O)[C@H](CCC(N)=O)NC(=O)CNC(=O)[C@@H]1C[C@@H](O)CN1)C(=O)N[C@@H](C)C(=O)NCC(=O)N1CCC[C@H]1C(=O)N[C@@H](CCCCN)C(=O)O [YY-101] (H-[Hyp]GQDGLAGPK-OH; N-terminus and C-terminus assumed)
- CCL3/MIP-1 alpha Concentration [1]: 33793.5 pg/mL
- CCL3/MIP-1 alpha MFI [1]: 46.8
- CCL3/MIP-1 alpha Concentration [2]: 35134.4 pg/mL and 33380.1 pg/mL and 32865.8 pg/mL
- CCL3/MIP-1 alpha MFI [2]: 49.5 and 46.0 and 45.0
- CCL3/MIP-1 alpha Concentration [3]: 36420.8 pg/mL
- CCL3/MIP-1 alpha MFI [3]: 52.2
- CCL3/MIP-1 alpha Concentration [4]: 35866.0 pg/ml (2×) and 37530.4 pg/ml
- CCL3/MIP-1 alpha MFI [4]: 51.0 (2×) and 54.5
- CCL3/MIP-1 alpha Concentration [5]: 34955.7 pg/mL
- CCL3/MIP-1 alpha MFI [5]: 49.2
- CCL3/MIP-1 alpha Concentration [6]: 36107.4 pg/mL and 33380.1 pg/mL and 35379.6 pg/mL
- CCL3/MIP-1 alpha MFI [6]: 51.5 and 46.0 and 50.0
- CCL3/MIP-1 alpha Concentration [7]: 34545.7 pg/mL
- CCL3/MIP-1 alpha MFI [7]: 48.3
- CCL3/MIP-1 alpha Concentration [8]: 33380.1 pg/mL and 35866.0 pg/mL and 34390.9 pg/mL
- CCL3/MIP-1 alpha MFI [8]: 46.0 and 51.0 and 48.0
- CCL3/MIP-1 alpha Concentration [9]: 33677.2 pg/mL
- CCL3/MIP-1 alpha MFI [9]: 46.7
- CCL3/MIP-1 alpha Concentration [10]: 31818.4 pg/mL and 36347.5 pg/mL and 32865.8 pg/mL
- CCL3/MIP-1 alpha MFI [10]: 43.0 and 52.0 and 45.0
- CCL3/MIP-1 alpha Concentration [11]: 33967.7 pg/mL
- CCL3/MIP-1 alpha MFI [11]: 47.2
- CCL3/MIP-1 alpha Concentration [12]: 33635.0 pg/mL and 34887.9 pg/mL and 33380.1 pg/mL
- CCL3/MIP-1 alpha MFI [12]: 46.5 and 49.0 and 46.0
- CCL3/MIP-1 alpha Concentration [13]: 16345.0 pg/mL
- CCL3/MIP-1 alpha MFI [13]: 19.5
- CCL3/MIP-1 alpha Concentration [14]: 15903.7 pg/mL and 16786.4 pg/mL
- CCL3/MIP-1 alpha MFI [14]: 19.0 and 20.0
- CCL3/MIP-1 alpha Concentration [15]: 14259.0 pg/mL
- CCL3/MIP-1 alpha MFI [15]: 17.3
- CCL3/MIP-1 alpha Concentration [16]: 14014.0 pg/mL and 14504.0 pg/mL
- CCL3/MIP-1 alpha MFI [16]: 17.0 and 17.5
- CCL3/MIP-1 alpha Concentration (PBMC + test article 0.05 uM, no LPS, Mean): 13904.3 pg/mL

Source: patent publication US20230146455A1, “TREATMENT OF INFLAMMATORY DISEASES WITH PEPTIDES AND PHARMACEUTICAL COMPOSITIONS” (Yuyu Pharma, Inc., priority 2020, published 2023)
